Molecular target: T1, HIV-integrase (Human immunodeficiency virus type 1 group M subtype B, UniProt P12497)
T1 construct: Recombinant integrase (0.26 ng) was incubated with the beads
Assay: HIV-Integrase Inhibition Activity (SPA bead integration assay with P33 labeled target DNA)
Format: biochemical
Conditions: recombinant integrase, class symbols; read-out: in vitro activity
Summary of the method: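 Biotinylated substrate DNA on streptavidin SPA beads loaded with recombinant integrase (90 min, 37° C), washed, then inhibitor plus 0.1 fmol P33-labeled target DNA added. Reaction stopped with 10 mM EDTA; integration measured as CPM by scintillation, giving IC50 ranks.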

Cc1cc(CNC(=O)c2nc3n(c(=O)c2O)CC2CCC3(NC(=O)[C@@H]3CCN3S(C)(=O)=O)CC2)ccc1F [Example 276, 7,10-Ethanopyrimido[1,2-a]azepine-2-carboxamide, N-[(4-fluoro-3-methylphenyl)methyl]-4,6,7,8,9,10-hexahydro-3-hydroxy-10-[[[(2S)-1-(methylsulfonyl)-2-azetidinyl]carbonyl]amino]-4-oxo-] and CS(=O)(=O)N1CCCC1C(=O)NC12CCC(CC1)Cn1c2nc(C(=O)NCc2ccc(F)cc2)c(O)c1=O (stereo in doubt) [Example 254, 7,10-Ethanopyrimido[1,2-a]azepine-2-carboxamide, N-[(4-fluorophenyl)methyl]-4,6,7,8,9,10-hexahydro-3-hydroxy-10-[[[(2R)-1-(methylsulfonyl)-2-pyrrolidinyl]carbonyl]amino]-4-oxo-] cannot be ordered by IC50: less than 0.01 µM for the first, less than 0.01 µM for the second.

First: Cc1ncnn1-c1cc(F)ccc1CNC(=O)c1nc2n(c(=O)c1O)CC1CCC2(NC(=O)C(=O)N(C)C)CC1 [Example 108, N′-(2-((4-Fluoro-2-(5-methyl-1H-1,2,4-triazol-1-yl)benzyl)carbamoyl)-3-hydroxy-4-oxo-6,7,8,9-tetrahydro-7,10-ethanopyrimido[1,2-a]azepin-10(4H)-yl)-N,N-dimethylethanediamide]
Second: Cc1ncnn1-c1cc(F)ccc1CNC(=O)c1nc2n(c(=O)c1O)CC1CCC2(NS(C)(=O)=O)CC1 [Example 39, N-(4-Fluoro-2-(5-methyl-1H-1,2,4-triazol-1-yl)benzyl)-3-hydroxy-10-((methylsulfonyl)amino)-4-oxo-4,6,7,8,9,10-hexahydro-7,10-ethanopyrimido[1,2-a]azepine-2-carboxamide]
The IC50 of the first is higher: 0.01 to 0.1 µM for the first, less than 0.01 µM for the second.

CCOC(=O)C(=O)NC12CCC(CC1)Cn1c2nc(C(=O)NCc2ccc(F)cc2)c(O)c1=O [Example 83, Ethyl((2-((4-fluorobenzyl)carbamoyl)-3-hydroxy-4-oxo-6,7,8,9-tetrahydro-7,10-ethanopyrimido[1,2-a]azepin-10(4H)-yl)amino)(oxo)acetate] and CCOC(=O)[C@@H]1CCCN1C(=O)C(=O)NC12CCC(CC1)Cn1c2nc(C(=O)NCc2ccc(F)cc2)c(O)c1=O [Example 92, Ethyl 1-(((2-((4-fluorobenzyl)carbamoyl)-3-hydroxy-4-oxo-6,7,8,9-tetrahydro-7,11-ethanopyrimido[1,2-a]azepin-10(4H)-yl)amino) (oxo)aceyl)-L-prolinate] cannot be ordered by IC50: less than 0.01 µM for the first, less than 0.01 µM for the second.

CC(=O)Nc1cc(C(=O)NC23CCC(CC2)Cn2c3nc(C(=O)NCc3ccc(F)cc3)c(O)c2=O)ccn1 [Example 318, 7,10-Ethanopyrimido[1,2-a]azepine-2-carboxamide, 10-[[[2-(acetylamino)-4-pyridinyl]carbonyl]amino]-N-[(4-fluorophenyl)methyl]-4,6,7,8,9,10-hexahydro-3-hydroxy-4-oxo-] and Cn1ccnc1C(=O)NC12CCC(CC1)Cn1c2nc(C(=O)NCc2ccc(F)cc2)c(O)c1=O [Example 49, N-(4-Fluorobenzyl)-3-hydroxy-10-(((1-methyl-1H-imidazol-2-yl)carbonyl)amino)-4-oxo-4,6,7,8,9,10-hexahydro-7,11-ethanopyrimido[1,2-a]azepine-2-carboxamide] cannot be ordered by IC50: less than 0.01 µM for the first, less than 0.01 µM for the second.

Cn1ccc(C(=O)NC23CCC(CC2)Cn2c3nc(C(=O)NCc3ccc(F)cc3)c(O)c2=O)n1 [Example 245, 7,10-Ethanopyrimido[1,2-a]azepine-2-carboxamide, N-[(4-fluorophenyl)methyl]-4,6,7,8,9,10-hexahydro-3-hydroxy-10-[[(1-methyl-1H-pyrazol-3-yl)carbonyl]amino]-4-oxo-] and Cn1nccc1C(=O)NC12CCC(CC1)Cn1c2nc(C(=O)NCc2ccc(F)cc2)c(O)c1=O [Example 247, 7,10-Ethanopyrimido[1,2-a]azepine-2-carboxamide, N-[(4-fluorophenyl)methyl]-4,6,7,8,9,10-hexahydro-3-hydroxy-10-[[(1-methyl-1H-pyrazol-5-yl)carbonyl]amino]-4-oxo-] cannot be ordered by IC50: less than 0.01 µM for the first, less than 0.01 µM for the second.

CN(C)C(=O)C(=O)NC12CCC(CC1)Cn1c2nc(C(=O)NCCCN2CCCC2=O)c(O)c1=O [Example 337] and CN(C)C(=O)C(=O)NC12CCC(CC1)Cn1c2nc(C(=O)NCC2CCCO2)c(O)c1=O (stereo not drawn) [Example 338] cannot be ordered by IC50: greater than 0.1 µM for the first, greater than 0.1 µM for the second.

First: CN(C)C(=O)C(=O)NC12CCC(CC1)Cn1c2nc(C(=O)NCc2cc(Cl)cc(Cl)c2)c(O)c1=O [Example 383]
Second: CN(C)C(=O)C(=O)NC12CCC(CC1)Cn1c2nc(C(=O)NCc2ccc(N)cc2)c(O)c1=O [Example 385]
The IC50 of the first is lower: less than 0.01 µM for the first, 0.01 to 0.1 µM for the second. The first is the more potent here.

Compared with Cc1ccccc1CNC(=O)c1nc2n(c(=O)c1O)CC1CCC2(NC(=O)C(=O)N(C)C)CC1 [Example 370], CN(C)C(=O)C(=O)NC12CCC(CC1)Cn1c2nc(C(=O)NCc2ccncc2)c(O)c1=O [Example 365] is higher in IC50: less than 0.01 µM for the first, greater than 0.1 µM for the second.

CN(C)S(=O)(=O)NC12CCC(CC1)Cn1c2nc(C(=O)NCc2ccc(F)cc2)c(O)c1=O [Example 40, 10-((Dimethylsulfamoyl)amino)-N-(4-fluorobenzyl)-3-hydroxy-4-oxo-4,6,7,8,9,10-hexahydro-7,10-ethanopyrimido[1,2-a]azepine-2-carboxamide] and CN(C)S(=O)(=O)N1CCN(C(=O)C(=O)NC23CCC(CC2)Cn2c3nc(C(=O)NCc3ccc(F)cc3)c(O)c2=O)CC1 [Example 145, 10-(((4-(Dimethylsulfamoyl)-1-piperazinyl)(oxo)acetyl)amino)-N-(4-fluorobenzyl)-3-hydroxy-4-oxo-4,6,7,8,9,10-hexahydro-7,10-ethanopyrimido[1,2-a]azepine-2-carboxamide] cannot be ordered by IC50: less than 0.01 µM for the first, less than 0.01 µM for the second.

O=C(NC12CCC(CCn3c1nc(C(=O)NCc1ccc(F)c(Cl)c1)c(O)c3=O)C2)C(=O)N1CC[C@@H](F)C1 (stereo partly drawn) [Example 215, 8,11-Methano-4H-pyrimido[1,2-a]azocine-2-carboxamide, N-[(3-chloro-4-fluorophenyl)methyl]-11-[[2-[(3R)-3-fluoro-1-pyrrolidinyl]-1,2-dioxoethyl]amino]-6,7,8,9,10,11-hexahydro-3-hydroxy-4-oxo-] and CN(C)C(=O)C(=O)N(C)C12CCC(CC1)Cn1c2nc(C(=O)NCc2ccc(F)c(Cl)c2)c(O)c1=O [Example 158, N-(2-((3-Chloro-4-fluorobenzyl)carbamoyl)-3-hydroxy-4-oxo-6,7,8,9-tetrahydro-7,10-ethanopyrimido[1,2-a]azepin-10(4H)-yl)-N,N′,N′-trimethylethanediamide] cannot be ordered by IC50: less than 0.01 µM for the first, less than 0.01 µM for the second.

Compared with O=C(NC12CCC(CC1)Cn1c2nc(C(=O)NCc2ccc(F)cc2)c(O)c1=O)C(=O)N1CCN(C(=O)c2ccco2)CC1 [Example 143, N-(4-Fluorobenzyl)-10-(((4-(2-furanylcarbonyl)-1-piperazinyl)(oxo)acetyl)amino)-3-hydroxy-4-oxo-4,6,7,8,9,10-hexahydro-7,10-ethanopyrimido[1,2-a]azepine-2-carboxamide], O=C(NCc1ccc(F)cc1)c1nc2n(c(=O)c1O)CC1CCC2(NC(=O)N2CCOCC2)CC1 [Example 22, N-(4-Fluorobenzyl)-3-hydroxy-10-((4-morpholinylcarbonyl)amino)-4-oxo-4,6,7,8,9,10-hexahydro-7,10-ethanopyrimido[1,2-a]azepine-2-carboxamide] is higher in IC50: less than 0.01 µM for the first, 0.01 to 0.1 µM for the second.

CN(C(=O)c1ccncc1)C12CCC(CC1)Cn1c2nc(C(=O)NCc2ccc(F)cc2)c(O)c1=O [Example 310, 7,10-Ethanopyrimido[1,2-a]azepine-2-carboxamide, N-[(4-fluorophenyl)methyl]-4,6,7,8,9,10-hexahydro-3-hydroxy-10-[methyl(4-pyridinylcarbonyl)amino]-4-oxo-] and COCCN(C)C(=O)C(=O)N(C)C12CCC(CC1)Cn1c2nc(C(=O)NCc2ccc(F)cc2)c(O)c1=O [Example 167, N-(2-((4-Fluorobenzyl)carbamoyl)-3-hydroxy-4-oxo-6,7,8,9-tetrahydro-7,10-ethanopyrimido[1,2-a]azepin-10(4H)-yl)-N′-(2-methoxyethyl)-N,N′-dimethylethanediamide] cannot be ordered by IC50: less than 0.01 µM for the first, less than 0.01 µM for the second.

Cn1nnc(C(=O)NC23CCC(CC2)Cn2c3nc(C(=O)NCc3ccc(F)cc3)c(O)c2=O)n1 [Example 250, 7,10-Ethanopyrimido[1,2-a]azepine-2-carboxamide, N-[(4-fluorophenyl)methyl]-4,6,7,8,9,10-hexahydro-3-hydroxy-10-[[(2-methyl-2H-tetrazol-5-yl)carbonyl]amino]-4-oxo-] and O=C(NCc1ccc(F)cc1)c1nc2n(c(=O)c1O)CC1CCC2(NC(=O)C2CCCN2C(=O)C2CCC2)CC1 (stereo not drawn) [Example 400] cannot be ordered by IC50: less than 0.01 µM for the first, less than 0.01 µM for the second.

First: CN1CCN(c2cccc(CNC(=O)c3nc4n(c(=O)c3O)CC3CCC4(NC(=O)C(=O)N(C)C)CC3)c2)CC1 [Example 127, N′-(3-Hydroxy-2-((3-(4-methyl-1-piperazinyl)benzyl)carbamoyl)-4-oxo-6,7,8,9-tetrahydro-7,10-ethanopyrimido[1,2-a]azepin-10(4H)-yl)-N,N-dimethylethanediamide]
Second: CN(C)C(=O)C(=O)NC12CCC(Cn3c1nc(C(=O)NCc1ccc(F)cc1)c(O)c3=O)OC2 (stereo not drawn) [Example 222, N′-(2-((4-Fluorobenzyl)carbamoyl)-3-hydroxy-4-oxo-6,7,8,9-tetrahydro-7,10-(epoxymethano)pyrimido[1,2-a]azepin-10(4H)-yl)-N,N-dimethylethanediamide]
The IC50 of the first is higher: 0.01 to 0.1 µM for the first, less than 0.01 µM for the second. The second is the more potent here.

Cc1cc(CNC(=O)c2nc3n(c(=O)c2O)CC2CCC3(NC(=O)Nc3ccccn3)CC2)ccc1F [Example 325, 7,10-Ethanopyrimido[1,2-a]azepine-2-carboxamide, N-[(4-fluoro-3-methylphenyl)methyl]-4,6,7,8,9,10-hexahydro-3-hydroxy-4-oxo-10-[[(2-pyridinylamino)carbonyl]amino]-] and O=C(NC12CCC(Cn3c1nc(C(=O)NCc1ccc(F)c(Cl)c1)c(O)c3=O)C2)OCc1ccccc1 (stereo not drawn) [Example 194, Carbamic acid, [2-[[[(3-chloro-4-fluorophenyl)methyl]amino]carbonyl]-6,7,8,9-tetrahydro-3-hydroxy-4-oxo-7,10-methanopyrimido[1,2-a]azepin-10(4H)-yl]-, phenylmethyl ester] cannot be ordered by IC50: less than 0.01 µM for the first, less than 0.01 µM for the second.

Reference: patent US8129398B2 (priority 2008, dated 2012)
